Tests used:
Assay type in all cases: physicochemical
[1] = Solution stability profile of Azacitidine in water at 25° C.; set-up: unit not given here
Procedure: In one embodiment of the invention, a batch of Azacitidine bulk solution was prepared by dissolving the compound (4 mg/mL) and Mannitol (4 mg/mL) in water at room temperature. […]

[2] = Solution stability profile of Azacitidine in water at −1° C. to 0° C.; set-up: RGU / Specified Imp-1 / Specified Imp-2 / RGU-CHO / Total Impurity (excluding RGU & RGU-CHO): unit not given here; conditions: for RGU / RGU-CHO / Specified Imp-1 / Specified Imp-2 / Total Impurity (excluding RGU & RGU-CHO): water, −1° C. to 0° C.
Procedure: It is evident from the Table I that Fabrication of the Azacitidine in water at room temperature led to a significant increase in the level of “RGU-CHO” in the Bulk Solution. Further, in order to control the degradation rate of Azacitidine, another batch was manufactured in water at possible temperature i.e. −1° C. to 0° C. by dissolving Azacitidine (4 mg/mL) and Mannitol (4 mg/mL) in water at −1° C. to 0° C. and the solution stability results are shown below in Table II.

[3] = Solution stability of Azacitidine bulk solution in Water:Acetonitrile 80:20% v/v at −5 ± 2° C.; set-up: RGU / RGU-CHO: unit not given beside the values
Procedure: In another aspect of the invention the fabrication temperature was controlled at −5±3° C., −5±2° C., −5±1° C. preferably −5±2° C. using Water and Acetonitrile ratio in between 95:5 to 70:30 preferably 80:20 (% v/v) respectively. The hold time data of Azacitidine, Decitabine and Bendamustine obtained in solvent mixture of Water and Acetonitrile at a ratio of 80:20 (% v/v), when fabricated at a temperature range of −5±2° C. is presented in Table VIII, IX, X respectively.

Nc1ncn([C@@H]2O[C@H](CO)[C@@H](O)[C@H]2O)c(=O)n1 [Azacitidine]
Imp-1 ([1]; 1st hour): 0.027
Imp-2 ([1]; 1st hour): 0.050
RGU ([1]; 1st hour): 0.314
RGU-CHO ([1]; 1st hour): 6.966
Total Impurity (excluding RGU & RGU-CHO) ([1]; 1st hour): 0.077
Imp-1 ([1]; 2nd hour): 0.028
Imp-2 ([1]; 2nd hour): 0.050
RGU ([1]; 2nd hour): 0.591
RGU-CHO ([1]; 2nd hour): 10.495
Total Impurity (excluding RGU & RGU-CHO) ([1]; 2nd hour): 0.078
Imp-1 ([1]; Initial): 0.027
Imp-2 ([1]; Initial): 0.051
RGU ([1]; Initial): 0.164
RGU-CHO ([1]; Initial): 1.158
Total Impurity (excluding RGU & RGU-CHO) ([1]; Initial): 0.078
degradation in RGU-CHO ([2]; manufacturing in water at −1° C. to 0° C.): around 4%
RGU ([2]; 1st hour): 0.175
RGU-CHO ([2]; 1st hour): 1.767
Specified Imp-1 ([2]; 1st hour): 0.025
Specified Imp-2 ([2]; 1st hour): 0.051
Total Impurity (excluding RGU & RGU-CHO) ([2]; 1st hour): 0.076
RGU ([2]; 2nd hour): 0.166
RGU-CHO ([2]; 2nd hour): 2.283
Specified Imp-1 ([2]; 2nd hour): 0.025
Specified Imp-2 ([2]; 2nd hour): 0.051
Total Impurity (excluding RGU & RGU-CHO) ([2]; 2nd hour): 0.076
RGU ([2]; 3rd hour): 0.175
RGU-CHO ([2]; 3rd hour): 2.921
Specified Imp-1 ([2]; 3rd hour): 0.026
Specified Imp-2 ([2]; 3rd hour): 0.051
Total Impurity (excluding RGU & RGU-CHO) ([2]; 3rd hour): 0.077
RGU ([2]; 4th hour): 0.191
RGU-CHO ([2]; 4th hour): 4.112
Specified Imp-1 ([2]; 4th hour): 0.027
Specified Imp-2 ([2]; 4th hour): 0.051
Total Impurity (excluding RGU & RGU-CHO) ([2]; 4th hour): 0.078
RGU ([2]; Initial): 0.158
RGU-CHO ([2]; Initial): 0.891
Specified Imp-1 ([2]; Initial): 0.027
Specified Imp-2 ([2]; Initial): 0.051
Total Impurity (excluding RGU & RGU-CHO) ([2]; Initial): 0.078
Assay ([3]; 1st hour): 101.00
Imp-1 ([3]; 1st hour): 0.028
Imp-2 ([3]; 1st hour): 0.066
RGU ([3]; 1st hour): 0.145
RGU-CHO ([3]; 1st hour): 0.326
Total Impurity (excluding RGU & RGU-CHO) ([3]; 1st hour): 0.094
Assay ([3]; 2nd hour): 101.30
Imp-1 ([3]; 2nd hour): 0.028
Imp-2 ([3]; 2nd hour): 0.066
RGU ([3]; 2nd hour): 0.145
RGU-CHO ([3]; 2nd hour): 0.45
Total Impurity (excluding RGU & RGU-CHO) ([3]; 2nd hour): 0.094
Assay ([3]; 3rd hour): 100.80
Imp-1 ([3]; 3rd hour): 0.031
Imp-2 ([3]; 3rd hour): 0.068
RGU ([3]; 3rd hour): 0.146
RGU-CHO ([3]; 3rd hour): 0.591
Total Impurity (excluding RGU & RGU-CHO) ([3]; 3rd hour): 0.099
Assay ([3]; 4th hour): 101.30
Imp-1 ([3]; 4th hour): 0.026
Imp-2 ([3]; 4th hour): 0.067
RGU ([3]; 4th hour): 0.146
RGU-CHO ([3]; 4th hour): 0.730
Total Impurity (excluding RGU & RGU-CHO) ([3]; 4th hour): 0.093
Assay ([3]; 5th hour): 101.00
Imp-1 ([3]; 5th hour): 0.049
Imp-2 ([3]; 5th hour): 0.069
RGU ([3]; 5th hour): 0.148
RGU-CHO ([3]; 5th hour): 0.839
Total Impurity (excluding RGU & RGU-CHO) ([3]; 5th hour): 0.118
Assay ([3]; Initial): 101.80
Imp-1 ([3]; Initial): 0.05
Imp-2 ([3]; Initial): 0.068
RGU ([3]; Initial): 0.143
RGU-CHO ([3]; Initial): 0.164
Total Impurity (excluding RGU & RGU-CHO) ([3]; Initial): 0.118

— US9872873B2, “Process for preparing stable pharmaceutical compositions of compounds susceptible to hydrolysis” (Fresenius Kabi Oncology Limited, priority 2012, dated 2018)
